In ChEMBL document CHEMBL3627608, “Crystal structures of human RIP2 kinase catalytic domain complexed with ATP-competitive inhibitors: Foundations for understanding inhibitor selectivity” (Bioorg Med Chem, 2015):

How the values were obtained:
[1] = target: Dual specificity tyrosine-phosphorylation-regulated kinase 1B (Homo sapiens) (UniProt Q9Y463); assay: Inhibition of DYRK1B (unknown origin) at 10 uM after 120 mins P33 radiolabeled kinase activity assay
[2] = target: T1, Serine/threonine-protein kinase Nek9 (Homo sapiens) (UniProt Q8TD19); assay: Inhibition of NEK9 (unknown origin) at 10 uM after 120 mins P33 radiolabeled kinase activity assay
T1 sequence (whole entry): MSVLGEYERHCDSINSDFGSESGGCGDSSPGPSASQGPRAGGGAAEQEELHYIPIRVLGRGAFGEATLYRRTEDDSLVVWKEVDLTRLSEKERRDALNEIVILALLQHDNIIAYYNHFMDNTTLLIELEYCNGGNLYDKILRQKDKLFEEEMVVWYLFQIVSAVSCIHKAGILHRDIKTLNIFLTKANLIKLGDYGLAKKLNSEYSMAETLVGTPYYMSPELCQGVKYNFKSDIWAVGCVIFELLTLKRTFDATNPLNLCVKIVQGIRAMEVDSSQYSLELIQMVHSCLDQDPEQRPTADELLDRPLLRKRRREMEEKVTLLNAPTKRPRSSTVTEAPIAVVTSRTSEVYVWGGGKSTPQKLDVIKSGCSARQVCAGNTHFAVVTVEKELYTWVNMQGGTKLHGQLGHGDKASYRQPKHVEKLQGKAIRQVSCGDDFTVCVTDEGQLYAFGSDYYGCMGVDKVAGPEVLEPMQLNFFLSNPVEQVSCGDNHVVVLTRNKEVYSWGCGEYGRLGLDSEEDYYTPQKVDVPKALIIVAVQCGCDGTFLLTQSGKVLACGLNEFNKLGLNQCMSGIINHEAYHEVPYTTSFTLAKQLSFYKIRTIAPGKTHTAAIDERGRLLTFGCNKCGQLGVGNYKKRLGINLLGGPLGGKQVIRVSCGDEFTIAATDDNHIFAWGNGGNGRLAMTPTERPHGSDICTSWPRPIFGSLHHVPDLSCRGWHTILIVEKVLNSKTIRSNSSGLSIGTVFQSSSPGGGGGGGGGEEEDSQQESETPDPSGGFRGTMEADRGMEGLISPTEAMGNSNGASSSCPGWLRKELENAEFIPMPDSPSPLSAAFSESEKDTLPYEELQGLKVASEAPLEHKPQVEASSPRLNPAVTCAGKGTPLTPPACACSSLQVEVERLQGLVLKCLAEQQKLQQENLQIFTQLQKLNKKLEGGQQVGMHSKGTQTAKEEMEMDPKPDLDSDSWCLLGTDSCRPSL

[3] = target: Mitogen-activated protein kinase 14 (Homo sapiens) (UniProt Q16539); assay: Inhibition of P38alpha (unknown origin) at 10 uM after 120 mins P33 radiolabeled kinase activity assay
Chain of Mitogen-activated protein kinase 14 (Homo sapiens) (Q16539 whole entry): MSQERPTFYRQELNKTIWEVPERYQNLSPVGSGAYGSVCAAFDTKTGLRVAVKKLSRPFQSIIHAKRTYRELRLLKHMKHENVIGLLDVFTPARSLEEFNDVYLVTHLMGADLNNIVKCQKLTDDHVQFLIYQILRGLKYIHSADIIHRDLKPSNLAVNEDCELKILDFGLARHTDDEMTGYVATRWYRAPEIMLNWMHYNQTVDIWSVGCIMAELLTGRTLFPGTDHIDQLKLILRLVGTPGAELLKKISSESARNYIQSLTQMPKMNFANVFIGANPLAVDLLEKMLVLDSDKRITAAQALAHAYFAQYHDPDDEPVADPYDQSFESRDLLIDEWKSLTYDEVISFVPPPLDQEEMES

[4] = target: Tyrosine-protein kinase JAK1 (Homo sapiens) (UniProt P23458); assay: Inhibition of JAK1 (unknown origin) at 10 uM after 120 mins P33 radiolabeled kinase activity assay
Chain of Tyrosine-protein kinase JAK1 (Homo sapiens) (P23458 whole entry): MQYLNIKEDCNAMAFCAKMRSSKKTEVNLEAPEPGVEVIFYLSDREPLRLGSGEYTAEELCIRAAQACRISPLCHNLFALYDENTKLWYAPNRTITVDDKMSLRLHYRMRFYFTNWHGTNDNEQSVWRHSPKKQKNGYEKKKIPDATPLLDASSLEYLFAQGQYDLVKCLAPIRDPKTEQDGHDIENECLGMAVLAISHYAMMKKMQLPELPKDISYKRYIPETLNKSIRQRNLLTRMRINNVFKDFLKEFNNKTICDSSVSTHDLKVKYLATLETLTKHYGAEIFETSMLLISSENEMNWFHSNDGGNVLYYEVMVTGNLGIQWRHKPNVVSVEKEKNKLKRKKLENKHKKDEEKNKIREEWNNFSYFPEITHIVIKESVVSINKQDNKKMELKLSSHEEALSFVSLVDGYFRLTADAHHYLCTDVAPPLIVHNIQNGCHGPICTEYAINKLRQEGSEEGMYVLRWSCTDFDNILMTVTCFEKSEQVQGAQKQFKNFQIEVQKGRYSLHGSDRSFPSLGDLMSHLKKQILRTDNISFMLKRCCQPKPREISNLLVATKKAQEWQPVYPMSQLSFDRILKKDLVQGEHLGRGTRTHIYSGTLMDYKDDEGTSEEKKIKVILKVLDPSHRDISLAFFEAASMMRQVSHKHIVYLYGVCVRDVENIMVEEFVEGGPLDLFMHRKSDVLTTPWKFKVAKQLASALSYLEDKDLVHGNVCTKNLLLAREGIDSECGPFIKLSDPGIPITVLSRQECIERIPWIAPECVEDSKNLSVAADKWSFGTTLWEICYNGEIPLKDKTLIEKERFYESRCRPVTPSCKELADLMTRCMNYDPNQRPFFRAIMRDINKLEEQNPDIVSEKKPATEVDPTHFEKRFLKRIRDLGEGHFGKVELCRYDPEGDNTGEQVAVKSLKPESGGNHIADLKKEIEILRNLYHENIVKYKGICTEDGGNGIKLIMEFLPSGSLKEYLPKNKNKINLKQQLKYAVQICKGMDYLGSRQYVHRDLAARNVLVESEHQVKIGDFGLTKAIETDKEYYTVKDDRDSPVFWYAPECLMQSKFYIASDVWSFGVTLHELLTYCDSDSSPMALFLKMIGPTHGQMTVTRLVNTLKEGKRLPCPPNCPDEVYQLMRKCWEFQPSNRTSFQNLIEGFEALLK

[5] = target: MAP kinase-interacting serine/threonine-protein kinase 2 (Homo sapiens) (UniProt Q9HBH9); assay: Inhibition of MNK2 (unknown origin) at 10 uM after 120 mins P33 radiolabeled kinase activity assay
Chain of MAP kinase-interacting serine/threonine-protein kinase 2 (Homo sapiens) (Q9HBH9 whole entry, looked up): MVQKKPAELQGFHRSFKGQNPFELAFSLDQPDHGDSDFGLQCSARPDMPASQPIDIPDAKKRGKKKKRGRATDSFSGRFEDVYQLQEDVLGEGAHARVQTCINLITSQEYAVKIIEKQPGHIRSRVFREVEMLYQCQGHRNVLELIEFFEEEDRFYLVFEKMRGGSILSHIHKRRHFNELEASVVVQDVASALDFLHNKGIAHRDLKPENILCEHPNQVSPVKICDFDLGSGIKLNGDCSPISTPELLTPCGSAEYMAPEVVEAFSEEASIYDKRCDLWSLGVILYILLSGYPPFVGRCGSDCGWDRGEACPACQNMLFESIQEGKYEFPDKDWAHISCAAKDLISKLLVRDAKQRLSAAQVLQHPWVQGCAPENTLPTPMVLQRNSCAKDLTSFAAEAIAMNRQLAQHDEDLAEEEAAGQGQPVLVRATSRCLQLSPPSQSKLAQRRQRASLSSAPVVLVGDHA

[6] = target: Activated CDC42 kinase 1 (Homo sapiens) (UniProt Q07912); assay: Inhibition of ACK1 (unknown origin) at 10 uM after 120 mins P33 radiolabeled kinase activity assay
Chain of Activated CDC42 kinase 1 (Homo sapiens) (Q07912 whole entry, looked up): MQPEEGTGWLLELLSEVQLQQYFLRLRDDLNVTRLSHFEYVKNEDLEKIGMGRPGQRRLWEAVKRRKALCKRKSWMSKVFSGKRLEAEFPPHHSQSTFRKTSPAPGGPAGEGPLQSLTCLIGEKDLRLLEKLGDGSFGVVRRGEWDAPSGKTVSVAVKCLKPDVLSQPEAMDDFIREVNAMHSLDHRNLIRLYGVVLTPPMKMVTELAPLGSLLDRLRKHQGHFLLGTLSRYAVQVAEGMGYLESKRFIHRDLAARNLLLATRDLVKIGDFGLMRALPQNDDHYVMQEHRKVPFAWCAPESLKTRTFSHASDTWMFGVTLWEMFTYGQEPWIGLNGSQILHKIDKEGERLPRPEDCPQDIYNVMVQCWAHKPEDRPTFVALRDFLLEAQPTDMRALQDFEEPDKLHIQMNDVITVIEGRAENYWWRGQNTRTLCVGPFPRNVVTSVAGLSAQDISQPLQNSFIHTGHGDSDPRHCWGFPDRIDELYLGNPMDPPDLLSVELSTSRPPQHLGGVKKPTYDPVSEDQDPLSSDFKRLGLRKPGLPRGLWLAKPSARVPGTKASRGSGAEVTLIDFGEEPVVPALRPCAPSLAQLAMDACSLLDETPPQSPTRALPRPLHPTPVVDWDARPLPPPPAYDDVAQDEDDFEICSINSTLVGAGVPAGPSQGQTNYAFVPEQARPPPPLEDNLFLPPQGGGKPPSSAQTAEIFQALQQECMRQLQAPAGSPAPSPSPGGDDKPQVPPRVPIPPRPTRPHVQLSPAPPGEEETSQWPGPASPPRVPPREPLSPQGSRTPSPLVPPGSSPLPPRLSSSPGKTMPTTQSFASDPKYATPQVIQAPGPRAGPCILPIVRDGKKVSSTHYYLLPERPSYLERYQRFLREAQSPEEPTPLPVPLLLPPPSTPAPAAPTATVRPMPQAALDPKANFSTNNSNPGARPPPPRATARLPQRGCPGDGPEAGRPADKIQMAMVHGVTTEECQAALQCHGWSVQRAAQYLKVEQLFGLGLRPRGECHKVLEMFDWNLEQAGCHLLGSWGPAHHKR

[7] = target: T2, Testis-specific serine/threonine-protein kinase 3 (Homo sapiens) (UniProt Q96PN8); assay: Inhibition of TSSK3 (unknown origin) at 10 uM after 120 mins P33 radiolabeled kinase activity assay
T2 sequence (whole entry): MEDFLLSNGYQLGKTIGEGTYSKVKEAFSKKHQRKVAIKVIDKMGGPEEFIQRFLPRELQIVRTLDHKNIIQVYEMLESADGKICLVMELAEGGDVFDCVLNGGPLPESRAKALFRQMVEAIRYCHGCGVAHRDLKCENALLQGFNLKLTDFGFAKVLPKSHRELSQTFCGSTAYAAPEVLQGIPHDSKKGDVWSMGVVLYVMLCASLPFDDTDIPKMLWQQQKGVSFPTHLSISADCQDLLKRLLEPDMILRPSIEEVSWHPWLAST

[8] = target: T3, Activin receptor type-1 (Homo sapiens) (UniProt Q04771); assay: Inhibition of ALK2 (unknown origin) at 10 uM after 120 mins P33 radiolabeled kinase activity assay
T3 sequence (whole entry): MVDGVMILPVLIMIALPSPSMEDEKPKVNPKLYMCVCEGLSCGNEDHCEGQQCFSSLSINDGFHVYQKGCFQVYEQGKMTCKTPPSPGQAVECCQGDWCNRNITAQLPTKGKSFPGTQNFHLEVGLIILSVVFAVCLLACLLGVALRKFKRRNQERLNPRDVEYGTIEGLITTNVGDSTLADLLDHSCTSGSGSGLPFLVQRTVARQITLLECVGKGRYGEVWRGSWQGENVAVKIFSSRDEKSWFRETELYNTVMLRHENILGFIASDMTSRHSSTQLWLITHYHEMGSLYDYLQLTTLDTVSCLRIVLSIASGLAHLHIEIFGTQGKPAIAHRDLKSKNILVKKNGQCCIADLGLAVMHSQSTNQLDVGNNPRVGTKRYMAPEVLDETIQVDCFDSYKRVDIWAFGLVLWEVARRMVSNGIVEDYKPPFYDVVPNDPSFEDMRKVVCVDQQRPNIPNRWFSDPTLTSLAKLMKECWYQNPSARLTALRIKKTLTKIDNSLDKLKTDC

Chain of Dual specificity tyrosine-phosphorylation-regulated kinase 1B (Homo sapiens) (Q9Y463 whole entry, looked up): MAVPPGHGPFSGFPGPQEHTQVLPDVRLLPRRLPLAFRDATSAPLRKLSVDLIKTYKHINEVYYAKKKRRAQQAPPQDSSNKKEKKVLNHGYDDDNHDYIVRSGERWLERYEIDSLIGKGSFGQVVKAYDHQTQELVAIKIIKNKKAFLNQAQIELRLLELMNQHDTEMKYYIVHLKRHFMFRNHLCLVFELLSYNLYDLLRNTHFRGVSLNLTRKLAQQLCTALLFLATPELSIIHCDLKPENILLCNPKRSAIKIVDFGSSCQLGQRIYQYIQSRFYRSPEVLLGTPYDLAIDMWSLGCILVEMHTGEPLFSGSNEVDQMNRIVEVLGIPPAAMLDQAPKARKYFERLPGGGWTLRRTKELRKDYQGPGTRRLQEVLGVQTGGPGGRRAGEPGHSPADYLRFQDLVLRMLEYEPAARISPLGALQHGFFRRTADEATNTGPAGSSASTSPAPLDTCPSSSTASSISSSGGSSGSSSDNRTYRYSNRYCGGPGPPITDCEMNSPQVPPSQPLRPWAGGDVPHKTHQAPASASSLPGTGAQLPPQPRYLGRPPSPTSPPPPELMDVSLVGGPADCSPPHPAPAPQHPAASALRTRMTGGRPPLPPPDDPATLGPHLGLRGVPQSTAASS

Row | Compound | inhibition [1] [%] | inhibition [2] [%] | inhibition [3] [%] | inhibition [4] [%] | inhibition [5] [%] | inhibition [6] [%] | inhibition [7] [%] | inhibition [8] [%]
1 | COCCNC(=O)c1ccc2c(c1)nc(-c1cnc(-c3ccc(Cl)cc3)[nH]1)n2CCOC | 11.4 | -6.23 | 62.3 | 5.2 | 2.19 | 16.4 | 15 | 10.4
2 | CS(=O)(=O)c1cccc(Nc2nccc(-c3sc(N4CCOCC4)nc3-c3cccc(NS(=O)(=O)c4c(F)cccc4F)c3)n2)c1 | 27.5 | 100 | 18.8 | -2.11 | 81.5 | 96.5 | 10.5 | 85.2
3 | CC(C)(C)c1cc(NC(=O)Nc2ccc(Oc3ccncc3)cc2)no1 | 14.5 | 20.9 | 98.9 | -3.4 | 99.2 | 21.6 | 11.2 | -3.19
